According to patent publication US9428460B2, “N-[4-(quinolin-4-yloxy)cyclohexyl(methyl)](hetero)arylcarboxamides as androgen receptor antagonists, production and use thereof as medicinal products” (BAYER PHARMA AKTIENGESELLSCHAFT, priority 2012, dated 2016):

Assays:
Format in all cases: cell-based
[1] = target: androgen receptor mutant W741C (Homo sapiens (Human), UniProt P10275, W742C); test: Transactivation assay for the androgen receptor mutant W741C (transfected PC-3 cells); settings: in the presence of 1×10^−10 M R1881, 24 hours
androgen receptor mutant W741C, sequence (P10275 whole entry W742C): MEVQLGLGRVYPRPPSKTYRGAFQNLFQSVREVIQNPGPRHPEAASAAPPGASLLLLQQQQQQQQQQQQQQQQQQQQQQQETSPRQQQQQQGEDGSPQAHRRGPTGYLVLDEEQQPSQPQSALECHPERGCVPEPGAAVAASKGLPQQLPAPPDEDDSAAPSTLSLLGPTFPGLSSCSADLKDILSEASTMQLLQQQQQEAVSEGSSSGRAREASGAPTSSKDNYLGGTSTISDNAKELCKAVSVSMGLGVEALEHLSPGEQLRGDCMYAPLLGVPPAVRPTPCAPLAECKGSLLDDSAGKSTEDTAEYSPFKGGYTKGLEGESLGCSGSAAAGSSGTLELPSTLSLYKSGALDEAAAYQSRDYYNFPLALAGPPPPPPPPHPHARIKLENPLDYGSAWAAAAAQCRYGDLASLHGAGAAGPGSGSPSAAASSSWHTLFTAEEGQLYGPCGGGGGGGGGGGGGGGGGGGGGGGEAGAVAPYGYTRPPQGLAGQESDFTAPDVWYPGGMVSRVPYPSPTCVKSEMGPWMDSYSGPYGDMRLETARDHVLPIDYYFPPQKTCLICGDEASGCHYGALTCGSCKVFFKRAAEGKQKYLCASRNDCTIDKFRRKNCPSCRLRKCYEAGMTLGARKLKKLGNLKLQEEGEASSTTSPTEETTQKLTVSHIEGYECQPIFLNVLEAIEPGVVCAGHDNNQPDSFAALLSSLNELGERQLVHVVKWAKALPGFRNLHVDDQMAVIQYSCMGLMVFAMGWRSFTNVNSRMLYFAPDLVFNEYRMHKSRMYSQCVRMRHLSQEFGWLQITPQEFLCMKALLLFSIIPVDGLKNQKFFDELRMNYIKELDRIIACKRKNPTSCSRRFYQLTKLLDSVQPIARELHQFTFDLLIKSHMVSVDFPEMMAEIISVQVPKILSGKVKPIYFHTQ
Description: PC-3 cells (Kaighn et al., Invest. Urol. 17: 16-23, 1979) were plated out at a density of 10000 cells per well of a 96-well cell culture plate in RMPI 1640 medium (F1235, Biochrom AG, Berlin, Germany), which contained activated charcoal-treated calf serum (FCS Serum Gold, PAA Laboratories) at a concentration of 5% (v/v). On the next day the cells were transiently transfected with the pSG5-vector (#216201 Stratagene), which contained the sequence of the androgen receptor mutant W741C (Haapala et al., Lab Invest. 81(12): 1647-51, 2001), and with a reporter plasmid based on pGL4.14 (#E6691, Promega) with the luciferase-gene (from Photinus pyralis) under the control of the MMTV promoter (Cato et al., EMBO J. 6: 363-8, 1987). The cells were treated with the test substances in concentrations from 1×10^−8 to 1×10^−10 M in the presence of 1×10^−10 M R1881 and were incubated overnight at 37° C. and 5% CO2. After 24 hours, 100 μl of Steady Glo Lysis and Detection reagent (E2550, Promega) was added per well and the luminescence was read in a Victor3 Luminometer (PerkinElmer) for 1 second per well. The luminescence values obtained were normalized, wherein 100% corresponded to the effect of the unstimulated control (without R1881), and 0% corresponded to the effect of the stimulated control (R1881 plus DMSO instead of test substance). The IC50 value was determined by regression analysis based on a four-parameter equation (minimum, maximum, IC50, Hill coefficient; Y=Max+(Min−Max)/(1+(X/IC50)^Hill)).

[2] = target: human androgen receptor (full length, wild-type form) (Homo sapiens (Human), UniProt P10275); test: Transactivation assay for the wild-type androgen receptor (PC-3 cells, MMTV-luciferase reporter); settings: in the presence of R1881, 16 hours
human androgen receptor (full length, wild-type form), sequence (P10275 whole entry): as the sequence (P10275 whole entry W742C) above, with C742W counted along it
Source text: For determining the androgen receptor-dependent transcription, a cellular assay system was used, consisting of PC-3 cells (Kaighn et al., Invest. Urol. 17: 16-23, 1979), which express the human androgen receptor stably and recombinantly (full length, wild-type form, see Swiss-Prot Acc. No. P10275, Entry Version 159, Sequence Version 2). In addition, these PC3 cells contain a stably integrated reporter gene plasmid, which is based on the commercially available plasmid pGL4.14 (#E6691, Promega Corporation, Madison, Wis., USA) and contains the luciferase gene from the American firefly (Photinus pyralis) under the control of the MMTV promoter (Cato et al., EMBO J. 6: 363-368, 1987). These cells were propagated in routine cell culture at 37° C. and 5% CO2 in a medium containing 90% RPMI 1640 (Invitrogen GmbH, Darmstadt, Germany), 100 U penicillin, 100 μg/ml streptomycin (Invitrogen), 4 mM L-glutamine (Invitrogen), 10% fetal calf serum (FCS Serum Gold, PAA Laboratories GmbH, Cölbe, Germany), 600 μg/ml Geneticin (G418-sulphate, Invitrogen) and 10 μg/ml puromycin (Sigma Aldrich GmbH, Germany).
For carrying out the transactivation assays, approx. 1000 cells per well were plated out in a 384-well cell culture plate in a medium that contained activated charcoal-treated calf serum (FCS Serum Gold, PAA Laboratories) at a concentration of 5% (v/v). The test substances were added in a concentration series from 5.12×10^−12 to 1×10^−5 M in the presence of […] R1881 (methyltrienolone). The test plates were incubated overnight at 37° C. and 5% CO2. After 16 hours, 15 μl of Steady Glo Lysis and Detection reagent (E2550, Promega Corporation, Madison, Wis., USA) was added per well and the luminescence was read in a Topcount Luminometer (PerkinElmer, Waltham, Mass., USA) for 4 seconds per well. The luminescence values obtained were normalized, wherein 100% corresponded to the effect of the unstimulated control (without R1881), and 0% corresponded to the effect of the stimulated control (R1881 plus DMSO instead of test substance). The IC50 value was determined by regression analysis based on a four-parameter equation (minimum, maximum, IC50, Hill coefficient; Y=Max+(Min−Max)/(1+(X/IC50)^Hill)).

LAPC-4 cells = test: Proliferation assay with LAPC-4 cells; settings: Homo sapiens, LAPC4, 168 h; in the presence of 1×10^−9 M R1881, seven days, AlamarBlue; read-out: IC50 LAPC-4 cell proliferation
Description: LAPC-4 cells (Klein et al., Nat Med. 3(4): 402-8, 1997) were plated out at a density of 4000 cells per well of a 96-well cell culture plate in RMPI 1640 medium (F1275, Biochrom AG) that contained activated charcoal-treated calf serum (FCS Serum Gold, PAA Laboratories) at a concentration of 10% (v/v). On the next day the cells were treated with the test substances in concentrations from 1×10^−8 to 1×10^−10 M in the presence of 1×10^−9 M R1881. Cell proliferation was determined seven days later after incubation for 2 hours with AlamarBlue (DAL1100, Invitrogen) (Nakayama et al., J Immunol Methods, 204(2): 205-8, 1997). The fluorescence values obtained were normalized, wherein 100% corresponded to the effect of the unstimulated control (without R1881), and 0% corresponded to the effect of the stimulated control (R1881 plus DMSO instead of test substance). The IC50 value was determined by regression analysis based on a four-parameter equation (minimum, maximum, IC50, Hill coefficient; Y=Max+(Min−Max)/(1+(X/IC50)^Hill)).

[3] = target: androgen receptor mutant E709Y (Homo sapiens (Human), UniProt P10275, E710Y); test: Transactivation assay for the androgen receptor mutant E709Y (transfected PC-3 cells); settings: in the presence of 1×10^−10 M R1881, 24 hours
androgen receptor mutant E709Y, sequence (P10275 whole entry E710Y): as the sequence (P10275 whole entry W742C) above, with E710Y, C742W counted along it
Description: PC-3 cells (Kaighn et al., Invest. Urol. 17: 16-23, 1979) were plated out at a density of 10000 cells per well of a 96-well cell culture plate in RMPI 1640 medium (F1235, Biochrom AG Berlin, Germany) that contained activated charcoal-treated calf serum (FCS Serum Gold, PAA Laboratories) at a concentration of 5% (v/v). On the next day the cells were transiently transfected with the pSG5-vector (#216201 Stratagene), which contained the sequence of the androgen receptor mutant E709Y (Georget et al., Mol. Endocrinol. 20(4): 724-734, 2006), and with the MMTV-luciferase plasmid (see above, transactivation assay for the androgen receptor mutant W741C). The cells were treated with the test substances in concentrations from 1×10^−8 to 1×10^−10 M in the presence of 1×10^−10 M R1881 and were incubated overnight at 37° C. and 5% CO2. After 24 hours, 100 μl of Steady Glo Lysis and Detection reagent (E2550, Promega) was added per well and the luminescence was read in a Victor3 Luminometer (PerkinElmer) for 1 second per well. The luminescence values obtained were normalized, wherein 100% corresponded to the effect of the unstimulated control (without R1881), and 0% corresponded to the effect of the stimulated control (R1881 plus DMSO instead of test substance). The IC50 value was determined by regression analysis based on a four-parameter equation (minimum, maximum, IC50, Hill coefficient; Y=Max+(Min−Max)/(1+(X/IC50)^Hill)).

LNCaP cells = test: Proliferation assay with LNCaP cells; settings: Homo sapiens, 168 h, in the presence of 1×10^−10 M R1881, seven days, AlamarBlue, read-out: IC50 LNCaP cell proliferation
Description: LNCaP cells (Horoszewicz et al., in “Models for Prostate Cancer” (ed. G. P. Murphy), Alan R. Liss, New York 1981, p. 115-132; Horoszewicz et al., Cancer Res. 43: 1809-1818, 1983) were plated out at a density of 2000 cells per well of a 96-well cell culture plate in RMPI 1640 medium (F1275, Biochrom AG), which contained activated charcoal-treated calf serum (FCS Serum Gold, PAA Laboratories) at a concentration of 5% (v/v). Three days later the cells were treated with the test substances in concentrations from 1×10^−8 to 1×10^−10 M in the presence of 1×10^−10 M R1881. Cell proliferation was determined seven days later after incubation for 2 hours with AlamarBlue (DAL1100, Invitrogen) (Nakayama et al., J Immunol Methods, 204(2): 205-8, 1997). The fluorescence values obtained were normalized, wherein 100% corresponded to the effect of the unstimulated control (without R1881), and 0% corresponded to the effect of the stimulated control (R1881 plus DMSO instead of test substance). The IC50 value was determined by regression analysis based on a four-parameter equation (minimum, maximum, IC50, Hill coefficient; Y=Max+(Min−Max)/(1+(X/IC50)^Hill)).

Structure (SMILES) | IC50 [1] [µM] | IC50 [2] [µM] | IC50 [3] [µM] | IC50 (LNCaP cells) [µM] | IC50 (LAPC-4 cells) [µM]
O=C(N[C@H]1CC[C@H](Oc2ccnc3ccccc23)CC1)c1cccc(F)c1 [Example 19, N-{trans-4-(4-quinolyloxy)cyclohexyl}-3-fluorobenzamide] | – | 0.032 | – | 0.11 | 0.048
Cc1ccc(C(=O)N[C@H]2CC[C@H](Oc3ccnc4c(C#N)cccc34)CC2)cc1F [Example 28, N-{trans-4-[(8-cyanoquinolin-4-yl)oxy]cyclohexyl}-3-fluoro-4-methylbenzamide] | – | 0.045 | – | 0.051 | –
N#Cc1ccc(C(=O)N[C@H]2CC[C@H](Oc3ccnc4c(Br)cccc34)CC2)cc1 [Example 15, N-{trans-4-[(8-bromoquinolin-4-yl)oxy]cyclohexyl}-4-cyanobenzamide] | – | 0.261 | – | 0.19 | –
N#Cc1cccc2c(O[C@H]3CC[C@H](NC(=O)c4ccc(F)c(F)c4)CC3)ccnc12 [Example 24, N-{trans-4-[(8-cyanoquinolin-4-yl)oxy]cyclohexyl}-3,4-difluorobenzamide] | 0.072 | 0.092 | 0.014 | – | –
O=C(NC[C@H]1CC[C@H](Oc2ccnc3c(F)cccc23)CC1)c1cc[nH]n1 [Example 8, N-({trans-4-[(8-fluoroquinolin-4-yl)oxy]cyclohexyl}methyl)-1H-pyrazole-3-carboxamide] | – | 0.42 | – | 1.12 | –
N#Cc1cccc2c(O[C@H]3CC[C@H](NC(=O)c4ccc(Cl)c(F)c4)CC3)ccnc12 [Example 29, 4-chloro-N-{trans-4-[(8-cyanoquinolin-4-yl)oxy]cyclohexyl}-3-fluorobenzamide] | – | 0.061 | – | 0.029 | –
N#Cc1cccc2c(O[C@H]3CC[C@H](NC(=O)c4cc(F)cc(F)c4)CC3)ccnc12 [Example 30, N-{trans-4-[(8-cyanoquinolin-4-yl)oxy]cyclohexyl}-3,5-difluorobenzamide] | – | 0.039 | – | 0.03 | –
O=C(N[C@H]1CC[C@H](Oc2ccnc3ccccc23)CC1)c1ccc(F)c(F)c1 [Example 3, N-[trans-4-(4-quinolyloxy)cyclohexyl]-3,4-difluorobenzamide] | – | 0.045 | – | 0.099 | –

Second part, led by results:

IC50 [1] [µM] | IC50 [2] [µM] | IC50 [3] [µM] | IC50 (LNCaP cells) [µM] | Structure (SMILES) | IC50 (LAPC-4 cells) [µM]
0.072 | 0.105 | 0.056 | – | O=C(NC[C@H]1CC[C@H](Oc2ccnc3ccccc23)CC1)c1ccc(F)c(F)c1 [Example 9, N-{[trans-4-(4-quinolyloxy)cyclohexyl]methyl}-3,4-difluorobenzamide] | 0.045
– | 0.48 | – | 0.097 | Cc1cc(C(=O)NC[C@H]2CC[C@H](Oc3ccnc4c(F)cccc34)CC2)no1 [Example 7, N-({trans-4-[(8-fluoroquinolin-4-yl)oxy]cyclohexyl}methyl)-5-methylisoxazole-3-carboxamide] | –
0.22 | 0.194 | 0.175 | – | O=C(NC[C@H]1CC[C@H](Oc2ccnc3ccccc23)CC1)c1cccc(F)c1 [Example 10, N-{[trans-4-(4-quinolyloxy)cyclohexyl]methyl}-3-fluorobenzamide] | 0.13
– | 0.72 | – | 0.73 | N#Cc1cccc2c(O[C@H]3CC[C@H](CNC(=O)c4ccon4)CC3)ccnc12 [Example 31, N-({trans-4-[(8-cyanoquinolin-4-yl)oxy]cyclohexyl}methyl)isoxazole-3-carboxamide] | –
– | 0.65 | – | 0.56 | Cc1cc(C(=O)NC[C@H]2CC[C@H](Oc3ccnc4c(C#N)cccc34)CC2)no1 [Example 32, N-({trans-4-[(8-cyanoquinolin-4-yl)oxy]cyclohexyl}methyl)-5-methylisoxazole-3-carboxamide] | –
– | 0.21 | – | 0.26 | Cc1cc(C(=O)NC[C@H]2CC[C@H](Oc3ccnc4ccccc34)CC2)no1 [Example 11, N-{[trans-4-(4-quinolyloxy)cyclohexyl]methyl}-5-methylisoxazole-3-carboxamide] | 0.118
– | 0.33 | – | 0.087 | N#Cc1ccc(C(=O)NC[C@H]2CC[C@H](Oc3ccnc4ccccc34)CC2)cc1 [Example 22, N-{[trans-4-(4-quinolyloxy)cyclohexyl]methyl}-4-cyanobenzamide] | –
